Results published in patent publication US11406642B2, “DNP and DNP prodrug treatment of neuromuscular, neurodegenerative, autoimmune, developmental, traumatic brain injury, concussion, dry eye disease, hearing loss and/or metabolic diseases” (priority 2016, dated 2022).
Entries after “also recorded” stand apart in the source; their conditions may differ.

Assays:
[1] = system: ion channels; test: Inhibition of ion channels
From the text: (§1) Overt reactive oxygen species (ROSs) can be produced due to noise and certain ototoxic drugs that can damage the hair cells of the ear, resulting in either temporary or permanent hearing loss. Exposure to blast waves and continuous noise not only damaged the inner ear, but caused cell death in the hippocampus, suppressed neurogenesis and impaired memory function. Aging as well can manifest in mitochondrial dysfunction leading to hearing loss. It is emerging that attempts to treat hearing loss by targeting downstream issues is not very effective. In one embodiment, the compositions and methods of the invention relate to targeting oxidative stress upstream at the mitochondria that may be causative for many disorders. There have been a variety of attempts to lower cellular stress, such as administering anti-oxidants, however these drugs have limited tissue penetration into the brain and lower ROSs after they have been formed. […] While not being bound to theory, it is postulated that DNP modulates the mitochondrial membrane potential having a significant impact at preventing ROS formation in isolated mitochondria and in the treated wildtype mice. DNP treatment 3-hours post-ischemia reduced cerebral infarct volume 40% by protecting the penumbra or “threaten tissue” and could provide similar benefits after a blast to protect inner hair cells from eminent cell death. […]

[2] = system: cerebral infarct; conditions: treatment 3-hours post-ischemia; cited from earlier work
[3] = 28-day toxicity studies; format: in vivo; conditions: low doses
From the text: as §1

[4] = system: CYP; test: Inhibition of CYP; format: in vitro ADME
From the text: as §1

[5] = system: mouse model of Alzheimer's disease; test: Alzheimer's disease mouse model, Morris Water Maze; format: in vivo; conditions: chronic treatment
From the text: In one embodiment, the invention provides compositions and methods for treating neurodegenerative diseases such as Alzheimer's disease, Parkinson, and Huntington's disease. It is believed that the complete lack of historic success is due to most pharmaceutical industries focusing on a downstream event, such as plaques/tangles, whereas the issue is likely upstream at the mitochondria causing high cellular stress.

[6] = in rats, general statement; cited from earlier work
[7] = system: wildtype mice; test: Lifespan of chronically treated wildtype mice; format: in vivo; conditions: wildtype mice chronically treated with an extraordinarily low dose
From the text: as §1

[8] = system: Caco-2; test: Caco-2; format: in vitro ADME
From the text: as §1

[9] = Stability of II-38 in phosphate buffer, pH 7.4; format: physicochemical; conditions: pH 7.4, 37° C., 5% DMSO, within 8 h
Experimental: (§2) pH: Stability in aqueous buffers (37° C., pHs 1.2 and 7.4)
(§3) HPLC analysis was carried out on an Agilent 1200 Infinity Series Quatpump, equipped with a photodiode array detector and a computer integrating apparatus. An Inertsil ODS-3 column, C18, 5 μm, 4.6×50 mm (GL Science Inc. Japan) protected with a guard column: Alltima C18, 5 μm, 4.6×7.5 mm (Grace Discovery Sciences, IL, USA) was used as the stationary phase. An isocratic method with a mobile phase consisting of water/acetonitrile (70:30) containing 0.05% formic acid in each was used. A flow rate of 0.9 mL/min was used and detection was carried out at a UV wavelength of 250 nm.
Formulation of II-38 in phosphate buffer (PB): to formulate 1 mg/mL of II-38 in PB, 2.6 mg of II-38 was formulated in 0.13 mL of DMSO (i.e. 5%) and added slowly and gradually to a total volume of 2.47 mL of preheated PB (Table 2) in a Franz cell diffusion chamber preheated to 37° C. The solution was mixed for 30 sec every half an hour using magnetic stirrer. Samples of 20 μL (20 ug/mL of II-38) were collected at 0, 0.5, 1, 2, 4, 6 and 8 h. Each sample was mixed with acetonitrile QS to 1 mL, vortex-mixed for 30 sec and centrifuged at 10,000 rpm at room temp. A volume of 10 μL of the supernatant was injected into the HPLC spectrometer.

[10] = Stability of II-38 in hydrochloric acid buffer, pH 1.2; format: physicochemical; conditions: pH 1.2, 37° C., 5% DMSO, within 8 h
Experimental: as §2, §3
Hydrochloric acid, pH 1.2 buffer was prepared. II-38 (2.5 mg) was dissolved in 0.125 mL of DMSO (5%). Reactions were initiated by adding II-38 dissolved in DMSO slowly and gradually to a total volume of 2.375 mL of HCl buffer, pH 1.2 (Table 1) in a Franz cell diffusion chamber preheated to 37° C. The solution was mixed for 30 sec every half an hour using magnetic stirrer. Samples of 20 μL (20 μg/mL of II-38) were collected at 0, 1, 2, 4, 6 and 8 h. Each sample was mixed with acetonitrile QS to 1 mL, vortex-mixed for 30 sec and centrifuged at 10,000 rpm at room temp. A volume of 10 μL of the supernatant was injected into the HPLC spectrometer for detection of 2,4-DNP and II-38 in HCl buffer, pH 1.2.

[11] = Stability in simulated gastric fluid (SGF), pH 1.2; format: in vitro ADME; conditions: pH 1.2, 37° C.
Experimental: GI: Stability in simulated gastric fluid (USP, 37° C.)
as §3
To formulate 1 mg/mL of II-38 in SGF, 3.1 mg of II-38 was dissolved in 0.155 mL of DMSO (i.e. 5%) and added slowly and gradually to a total volume of 2.945 mL of preheated SGF (Table 3) in a cell diffusion chamber preheated to 37° C. The solution was mixed for 30 sec. every half an hour using magnetic stirrer. Samples of 20 μL (20 μg/mL of II-38) were collected at 0, 1, 2, 4, 6 and 8 h. Each sample was mixed with acetonitrile QS to 1 mL, vortex-mixed for 30 sec and centrifuged at 10,000 rpm at room temp. A volume of 10 μL of the supernatant was injected into the HPLC spectrometer.

| Structure (SMILES) | inhibition to ion channels [1] | reduction of cerebral infarct volume [2] [%] | Safety Index [3] [×] | toxicity [3] | inhibition to CYP [4] | short term memory in the Morris Water Maze [5] | half-life [6] [h] | lifespan [7] | inhibition, Caco-2 [8] | hydrolysis / stability in phosphate buffer [9] | hydrolysis / stability in HCl buffer [10] | stability in SGF [11] |
| --- | --- | --- | --- | --- | --- | --- | --- | --- | --- | --- | --- | --- |
| O=[N+]([O-])c1ccc(O)c([N+](=O)[O-])c1 [2,4-DNP, 2,4-dinitrophenol] | no inhibition | 40 | ≥ 10 | not toxic | no inhibition | strikingly improved | ~6 | living longer than untreated mice | no inhibition |  |  |  |
| O=C(Oc1ccc([N+](=O)[O-])cc1[N+](=O)[O-])N1CCOCC1 [II-38, 2,4-Dinitrophenyl morpholine-4-carboxylate] |  |  |  |  |  |  |  |  |  | no significant hydrolysis; also recorded: did not show significant hydrolysis; also recorded: no evidence of 2,4-DNP formation | no significant hydrolysis; also recorded: did not show significant hydrolysis; also recorded: no evidence of 2,4-DNP formation | stable |
